Results published in PMC4050313, “Panaxadiol and Panaxatriol Derivatives as Anti-Hepatitis B Virus Inhibitors” (Natural Products and Bioprospecting, 2014).
Like-named read-outs stand apart in the source and are kept apart here.

Columns and labels:
HBV DNA replication = test: Inhibition of HBV DNA replication, real-time PCR, HepG 2.2.15 cells; assay type: cell-based, Hepatitis B virus; details: HepG 2.2.15 cells, means of two independent experiments
Procedure: (§1) Based on our previous description, inhibitory activity on HBV (HBsAg, HBeAg and HBV DNA) was evaluated. […] Cytotoxicity was assayed with a modified 3-(4,5-dimethylthiazole-2-yl)-2,5-diphenyltetrazolium bromide (MTT) method (Gibco Invitrogen, Carlsbad, CA, USA). The anti-HBV antigen secretion activities were determined by the enzyme linked immunosorbent assay (ELISA; Autobio Diagnostics Co., Ltd, China). A real-time PCR assay was applied to detect the inhibitory activity on HBV DNA replication.

HBeAg secretion = test: microbe, parasite or virus in culture; assay type: cell-based, Hepatitis B virus
Procedure: as §1

HBsAg secretion = test: microbe, parasite or virus in culture; assay type: cell-based, Hepatitis B virus
Procedure: as §1

HepG 2.2.15 cells = test: Cytotoxicity, modified MTT method; assay type: cell-based; details: 50 % cytotoxicity concentration in HepG 2.2.15 cells; means of two independent experiments
Procedure: as §1

[1] = Cytotoxicity, modified MTT method; assay type: cell-based; details: human; 50 % cytotoxicity concentration in HepG 2.2.15 cells; means of two independent experiments
Procedure: as §1

[2] = system: liver injury induced by D-galactosamine and lipopolysaccharide; set-up: method as in PMID 12880307; details: liver injury induced by D-galactosamine and lipopolysaccharide in mice; cited from earlier work
[3] = system: herpes simplex virus type I; set-up: method as in doi:10.3109/13880209509088139; details: cited from earlier work
[4] = HepG 2.2.15 cells, means of two independent experiments, read-out: HBeAg IC50
[5] = HepG 2.2.15 cells, means of two independent experiments, read-out: HBsAg IC50
[6] = Hepatitis B virus, HepG2.2.15, read-out: HBeAg IC50
[7] = Hepatitis B virus, HepG2.2.15, read-out: HBsAg IC50

CC1(C)CCCC(C)(C2CCC3(C)C2C(O)CC2C4(C)CCC(OC(=O)c5cccnc5)C(C)(C)C4C(OC(=O)c4cccnc4)CC23C)O1 (stereo not drawn) [Compound 24, 3,6-O-Dinicotinoyl-panaxatriol] showed an IC50 (HBV DNA replication) of 412 µM, an IC50 (HBeAg secretion; [4]) of 1070 µM and an IC50 (HBsAg secretion; [5]) of 1650 µM. For the same molecule, the CC50 (HepG 2.2.15 cells) was 1650 µM.

COCC(=O)OC1CC2(C)C(CC(O)C3C(C4(C)CCCC(C)(C)O4)CCC32C)C2(C)CCC(OC(=O)COC)C(C)(C)C12 (stereo not drawn) [Compound 25, 3,6-O-Di(2′-methoxyl)acetoxyl-panaxatriol] showed an IC50 (HBV DNA replication) greater than 375 µM, an IC50 (HBeAg secretion; [4]) of 974 µM and an IC50 (HBsAg secretion; [5]) greater than 1500 µM. It also gave a CC50 (HepG 2.2.15 cells) greater than 1500 µM.

Molecule CC1(C)CCCC(C)(C2CCC3(C)C2C(=O)CC2C4(C)CCC(OC(=O)CCC(=O)O)C(C)(C)C4CCC23C)O1 [Compound 28, (20R)-20,25-Epoxy-3-O-succinyl-dammaran-12-dione] has an IC50 (HBV DNA replication) greater than 485 µM, an IC50 (HBeAg secretion; [4]) greater than 1940 µM and an IC50 (HBsAg secretion; [5]) greater than 1940 µM. The CC50 (HepG 2.2.15 cells) was greater than 1940 µM.

With CC1(C)CCC[C@](C)([C@H]2CC[C@]3(C)[C@@H]2[C@H](O)C[C@@H]2[C@@]4(C)CC[C@H](O)C(C)(C)[C@@H]4CC[C@]23C)O1 [PD, Panaxadiol] the IC50 (HBV DNA replication; Hepatitis B virus, HepG2.2.15) was 148 µM, the IC50 (HBeAg secretion; [6]) was greater than 2280 µM and the IC50 (HBsAg secretion; [7]) was greater than 2280 µM. It also gave a CC50 [1] of 923 µM.

CC1(C)CCC[C@](C)([C@H]2CC[C@]3(C)[C@@H]2[C@H](O)C[C@@H]2[C@@]4(C)CC[C@H](O)C(C)(C)[C@@H]4[C@@H](O)C[C@]23C)O1 [PT, Panaxatriol] gave an IC50 (HBV DNA replication; Hepatitis B virus, HepG2.2.15) of 669 µM, an IC50 (HBeAg secretion; [6]) greater than 2420 µM and an IC50 (HBsAg secretion; [7]) greater than 2420 µM. The CC50 [1] was greater than 2420 µM.

In the case of CC(C)=CCC[C@](C)(O[C@@H]1O[C@H](CO[C@@H]2OC[C@@H](O)[C@H](O)[C@H]2O)[C@@H](O)[C@H](O)[C@H]1O)[C@H]1CC[C@]2(C)[C@@H]1[C@H](O)C[C@@H]1[C@@]3(C)CC[C@H](O[C@@H]4O[C@H](CO)[C@@H](O)[C@H](O)[C@H]4O[C@@H]4O[C@H](CO)[C@@H](O)[C@H](O)[C@H]4O)C(C)(C)[C@@H]3CC[C@]12C [Rb3, ginsenoside Rb3], the hepatoprotective activity [2] is given as “showed hepatoprotective activity”.

For CC(C)=CCC[C@](C)(O[C@@H]1O[C@H](CO[C@@H]2O[C@@H](CO)[C@H](O)[C@H]2O)[C@@H](O)[C@H](O)[C@H]1O)[C@H]1CC[C@]2(C)[C@@H]1[C@H](O)C[C@@H]1[C@@]3(C)CC[C@H](O[C@@H]4O[C@H](CO)[C@@H](O)[C@H](O)[C@H]4O[C@@H]4O[C@H](CO)[C@@H](O)[C@H](O)[C@H]4O)C(C)(C)[C@@H]3CC[C@]12C [Rc, ginsenoside Rc], the hepatoprotective activity [2] is given as “showed hepatoprotective activity”.

For CC(C)=CCC[C@](C)(O[C@@H]1O[C@H](CO)[C@@H](O)[C@H](O)[C@H]1O)[C@H]1CC[C@]2(C)[C@@H]1[C@H](O)C[C@@H]1[C@@]3(C)CC[C@H](O[C@@H]4O[C@H](CO)[C@@H](O)[C@H](O)[C@H]4O[C@@H]4O[C@H](CO)[C@@H](O)[C@H](O)[C@H]4O)C(C)(C)[C@@H]3CC[C@]12C [Rd, ginsenoside Rd], the hepatoprotective activity [2] is given as “showed hepatoprotective activity”.

Molecule C[C@H](Cn1cnc2c(N)ncnc21)OCP(=O)(O)O [Tf, Tenofovir, reference compound] has an IC50 (HBV DNA replication; Hepatitis B virus, HepG2.2.15) of 0.71 µM, an IC50 (HBeAg secretion; [6]) of 1240 µM and an IC50 (HBsAg secretion; [7]) of 1390 µM. For the same molecule, the CC50 [1] was greater than 1720 µM.

In the case of CC(C)=CCC[C@](C)(O[C@@H]1O[C@H](CO[C@@H]2O[C@H](CO)[C@@H](O)[C@H](O)[C@H]2O)[C@@H](O)[C@H](O)[C@H]1O)[C@H]1CC[C@]2(C)[C@@H]1[C@H](O)C[C@@H]1[C@@]3(C)CC[C@H](O[C@@H]4O[C@H](CO)[C@@H](O)[C@H](O)[C@H]4O)C(C)(C)[C@@H]3CC[C@]12C [XVII, ginsenoside XVII], the hepatoprotective activity [2] is given as “showed hepatoprotective activity”.

For CC(C)=CCC[C@](C)(O)[C@H]1CC[C@]2(C)[C@@H]1[C@H](O)C[C@@H]1[C@@]3(C)CC[C@H](O[C@@H]4O[C@H](CO[C@@H]5OC[C@@H](O)[C@H](O)[C@H]5O)[C@@H](O)[C@H](O)[C@H]4O[C@@H]4O[C@H](CO)[C@@H](O)[C@H](O)[C@H]4O)C(C)(C)[C@@H]3CC[C@]12C [chikusetsusaponin III], the “ID50, reduced yield of herpes simplex virus type I” value [3] is listed as 29 µM.

In the case of CC(C)=CCC[C@](C)(O[C@@H]1O[C@H](CO)[C@@H](O)[C@H](O)[C@H]1O)[C@H]1CC[C@]2(C)[C@@H]1[C@H](O)C[C@@H]1[C@@]3(C)CC[C@H](O)C(C)(C)[C@@H]3[C@@H](O[C@@H]3O[C@H](CO)[C@@H](O)[C@H](O)[C@H]3O[C@@H]3OC[C@@H](O)[C@H](O)[C@H]3O)C[C@]12C [notoginsenoside R1], the hepatoprotective activity [2] is given as “showed hepatoprotective activity”.
